Earlier results in patent publication US20060006323A1, “Method and an apparatus for evaluating toxicity of chemical agents” (priority 2004, published 2006).

Target: T1, AhR (Homo sapiens, UniProt P35869)
T1 sequence (P35869 11-848): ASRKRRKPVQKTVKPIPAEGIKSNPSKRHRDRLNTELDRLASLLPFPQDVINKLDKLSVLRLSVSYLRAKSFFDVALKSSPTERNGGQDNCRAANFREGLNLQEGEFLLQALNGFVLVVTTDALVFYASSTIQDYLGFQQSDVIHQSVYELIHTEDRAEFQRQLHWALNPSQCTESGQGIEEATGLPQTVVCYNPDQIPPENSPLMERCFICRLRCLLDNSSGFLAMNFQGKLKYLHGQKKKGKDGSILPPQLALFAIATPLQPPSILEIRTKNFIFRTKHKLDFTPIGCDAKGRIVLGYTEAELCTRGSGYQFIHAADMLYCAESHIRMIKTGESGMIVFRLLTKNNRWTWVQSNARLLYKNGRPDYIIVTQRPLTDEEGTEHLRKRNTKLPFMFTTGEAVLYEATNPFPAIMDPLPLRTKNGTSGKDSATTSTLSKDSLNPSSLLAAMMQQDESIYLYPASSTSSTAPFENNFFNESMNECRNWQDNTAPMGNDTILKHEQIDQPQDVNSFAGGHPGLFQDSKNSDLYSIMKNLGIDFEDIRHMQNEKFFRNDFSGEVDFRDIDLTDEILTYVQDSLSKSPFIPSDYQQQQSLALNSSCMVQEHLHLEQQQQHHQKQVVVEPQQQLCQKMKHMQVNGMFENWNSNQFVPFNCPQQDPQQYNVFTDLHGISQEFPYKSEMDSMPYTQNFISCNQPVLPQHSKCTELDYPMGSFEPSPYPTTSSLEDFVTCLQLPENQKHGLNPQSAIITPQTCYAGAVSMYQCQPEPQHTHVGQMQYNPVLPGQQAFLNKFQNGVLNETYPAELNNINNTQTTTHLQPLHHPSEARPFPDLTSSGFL
Details: published by Matsui et al. 2002, HPLC bioassay; cited from earlier work

| SMILES | affinity with AhR |
| --- | --- |
| O=C1/C(=C2\Nc3ccccc3C2=O)Nc2ccccc21 [indigo] | strong affinity |

Tested on: not given
Details: toxicity intensity relative to 2,3,7,8-TCDD set to be 1; cited from earlier work

| SMILES | WHO-TEF |
| --- | --- |
| Clc1cc2c(cc1Cl)Oc1c(Cl)c(Cl)c(Cl)c(Cl)c1O2 [1,2,3,4,7,8-HxCDD] | 0.1 |
| Clc1cc2c(c(Cl)c1Cl)Oc1cc(Cl)c(Cl)c(Cl)c1O2 [1,2,3,6,7,8-HxCDD] | 0.1 |
| Clc1cc2c(c(Cl)c1Cl)Oc1c(cc(Cl)c(Cl)c1Cl)O2 [1,2,3,7,8,9-HxCDD] | 0.1 |
| Clc1cc2c(cc1Cl)Oc1c(cc(Cl)c(Cl)c1Cl)O2 [1,2,3,7,8-PeCDD] | 1 |
| Clc1cc2c(cc1Cl)Oc1cc(Cl)c(Cl)cc1O2 [2,3,7,8-TCDD] | 1 |
| Clc1c(Cl)c(Cl)c2c(c1Cl)Oc1c(Cl)c(Cl)c(Cl)c(Cl)c1O2 [OCDD] | 0.0001 |

Tested on: not given
Details: reported toxicity; cited from earlier work

| SMILES | toxicity |
| --- | --- |
| Clc1c(Cl)c(Cl)c2c(c1Cl)Oc1ccccc1O2 [1,2,3,4-TCDD] | without any reported toxicity |
| O=C1/C(=C2\Nc3ccccc3C2=O)Nc2ccccc21 [indigo] | comparatively low |
